Assays:
[1] = test system: EC d6; test: Beta-galactosidase staining (senescence); format: cell-based, mouse; settings: EC d6 24 h + 24 h post incubation
Protocol: (§1) Beta-galactosidase activity was analyzed using the Cellular Senescence Assay Kit (Cell Biolabs, Inc., San Diego, CA, USA) according to the manufacturer’s instructions. After treatment and/or post-incubation period, the cells were fixed and stained (overnight, 37 °C). For control, untreated cells were incubated with working solution containing citrate-Na2HPO4 buffer at pH 4. The cells were analyzed by light microscopy (Axiovert 40 C, Carl Zeiss AG, 20x objective) and the fraction of beta-galactosidase positive (blue) cells was calculated (5 images per sample).

[2] = test system: EC d4; test: Beta-galactosidase staining (senescence); format: cell-based, mouse; settings: EC d4 48 h
Protocol: as §1

[3] = test system: EC d6; test: DNA fiber spreading assay; format: cell-based, mouse; settings: EC d6 24 h; HU: 5 mM, 1 h
Protocol: (§2) To analyze DNA replication fork progression, the DNA fiber spreading assay was performed. Briefly, cells were pulse-labeled with 20 µM CldU (20 min, 37 °C, 5% C0_2) and immediately afterwards with 200 µM IdU (20 min, 37 °C, 5% C02). Cell suspension was applied onto glass slides followed by cell lysis (0.5% SDS, 200 mM Tris–HCl, 50 mM EDTA). After incubation (6 min, RT), slides were tilted upwards to stretch the fibers, dried 6 min lying horizontally flat and fixed (5 min, RT) in methanol: acetic acid (3:1). After drying (7 min, lying horizontally flat) slides were stored overnight in 70% ethanol (4 °C). The next day samples were incubated in 100% methanol (5 min, RT) followed by denaturation in 2.5 M HCl (1 h, RT) and blocking (5% BSA in PBS, 1 h, 37 °C). DNA Fibers were stained with rat anti-BrdU (1:40) for CldU detection and mouse anti-BrdU (1:70) for IdU detection (in 0.5% BSA/PBS; 1 h, RT). After washing (0.05% Tween 20 in PBS and PBS) incubation with secondary antibodies anti-rat 488 (1:400) and anti-mouse 555 (1:250) was performed (1 h, RT, 0.5% BSA in PBS). Following washing with 0.05% Tween 20 in PBS and PBS, the slides were mounted with Fluoroshield (Sigma [Steinheim, Germany]). DNA fibers were analyzed microscopically (Olympus BX43 fluorescence microscope [40 objective]). The length of CldU (green) and IdU (red) tract was measured using ImageJ software, analyzing 200 fibers per experimental condition.

[4] = test system: mESC; test: DNA fiber spreading assay; format: cell-based, mouse; settings: mESC 24 h; HU: 5 mM, 1 h
Protocol: as §2

[5] = test system: EC d4; test: DNA fiber spreading assay; format: cell-based, mouse; settings: EC d4 48 h; HU: 5 mM, 1 h
Protocol: as §2

[6] = test system: mESC; test: EdU incorporation (S-phase activity); format: cell-based, mouse; settings: mESC 24 h
Protocol: S-phase activity of cells was monitored by measuring EdU incorporation using the EdU-Click 488 assay according to the manufacturer’s protocol. Briefly, cells were pulse-treated with 5-ethynyl-2′-deoxyuridine (EdU) for 3 h. Alexa Fluor 488-conjugated reaction cocktail was added (30 min, RT) and nuclei were counterstained with DAPI. The percentage of EdU-positive area/DAPI-positive area was calculated by fluorescence microscopy (Olympus BX43, 20x objective).

[7] = test system: primary murine cardiac endothelial cells; test: RT-qPCR mRNA expression; format: cell-based, mouse
Protocol: Total RNA was purified using the RNeasy Mini Kit (Qiagen, Hilden, Germany). Reverse transcriptase (RT) reaction was performed with the HighCapacity cDNA Reverse Transcription Kit (Applied Biosystems, Darmstadt, Germany) using 900–2000 ng of RNA. Quantitative RT-qPCR analysis was performed using following conditions: (1) 95 °C–10 min; (2) 45 amplification cycles with 95 °C–15 s, 55 °C–15 s, and 72 °C–17 s; (3) 95 °C–1 min, 55 °C–1 min, 65 °C–5 s. If not stated otherwise, analyses were performed in technical triplicates using pooled samples from two independent experiments (each performed with biological duplicates) by use of a CFX96 cycler (BioRad) and the SensiMix SYBR Kit (Bioline, London, UK). The primers used for mRNA expression analyses are listed in Supplementary Table 1. To ensure the specificity of the amplification product, melting curves were recorded at the end of the run. mRNA expression levels were normalized to β-Actin and Gapdh. Relative mRNA expression in mESC or corresponding untreated controls was set to 1.0. Only changes in gene expression of ≤ 0.5- and ≥ 2-fold were considered as biologically relevant. Fold-changes in gene expression are summarized in Supplementary Table 2.

[8] = test system: EC d4; test: Mitochondrial membrane potential (TMRM-MitoTracker Green); format: cell-based, mouse; settings: EC d4 treated 48 h, analysed in EC d6; Dox 0.05 µM
[9] = test system: EC d6; test: Nuclear γH2AX / 53BP1 foci (DSB); settings: EC d6 24 h, equitoxic concentrations
[10] = test system: EC d4; test: Alkaline comet assay; settings: EC d4 48 h
[11] = test system: EC d4; test: Doxorubicin import/export (flow cytometry); format: cell-based, mouse; settings: EC d4, 2 h pulse then 6 h post-incubation
Protocol: Import and export of Dox were examined via flow cytometry. […] Trypsinized cells were washed with PBS and pelleted by centrifugation (200 x g, 5 min, 4 °C). After additional washing, cells were resuspended in PBS.

[12] = test system: mESC; test: Alkaline comet assay; settings: mESC 24 h

Nc1ccccc1NC(=O)c1ccc(CNC(=O)OCc2cccnc2)cc1 [EST, entinostat]
percentage of beta-Gal-positive cells [1]: increase
percentage of beta-Gal-positive cells [2]: increase
replication fork progression [3]: opposite effects
replication fork progression [4]: promoted new DNA strand synthesis
replication fork progression [5]: opposite effects

O=c1c2ccccc2nc(/C=C/c2cccnc2)n1Cc1ccccc1 [B02]
number of EdU-positive cells [6]: not

COc1cccc2c1C(=O)c1c(O)c3c(c(O)c1C2=O)C[C@@](O)(C(=O)CO)C[C@@H]3O[C@H]1C[C@H](N)[C@H](O)[C@H](C)O1 [Dox, doxorubicin]
Ccn1a mRNA ([7]; 1 µM, 24 h, Fig 7E): 0.52 Fold of untreated control
Ccnd2 mRNA ([7]; 1 µM, 24 h, Fig 7E): 2.92 Fold of untreated control
Cdkn1a mRNA ([7]; 1 µM, 24 h, Fig 7E): 12.45 Fold of untreated control
Cdkn2a mRNA ([7]; 1 µM, 24 h, Fig 7E): 2.56 Fold of untreated control
Cxc1 mRNA ([7]; 1 µM, 24 h, Fig 7E): 10.16 Fold of untreated control
E2f1 mRNA ([7]; 1 µM, 24 h, Fig 7E): 0.54 Fold of untreated control
Glb1 mRNA ([7]; 1 µM, 24 h, Fig 7E): 2.10 Fold of untreated control
Il6 mRNA ([7]; 1 µM, 24 h, Fig 7E): 16.90 Fold of untreated control
Il8 mRNA ([7]; 1 µM, 24 h, Fig 7E): 2.54 Fold of untreated control
Mmp3 mRNA ([7]; 1 µM, 24 h, Fig 7E): 1.42 Fold of untreated control
Mybl2 mRNA ([7]; 1 µM, 24 h, Fig 7E): 0.053 Fold of untreated control
Tp53 mRNA ([7]; 1 µM, 24 h, Fig 7E): 1.66 Fold of untreated control
upregulation of Il6, Cxc1 and Cdkn1a mRNA ([7]; Dox 24 h): about 10 fold
mitochondrial membrane potential [8]: strongest drop in mitochondrial membrane potential
DSB formation (γH2AX / 53BP1 foci) [9]: significant increase
steady-state level of SSB (alkaline comet assay) [10]: no or only a minor increase
Dox efflux capacity as compared to the other differentiation stages [11]: enhanced export activity
steady-state level of SSB (alkaline comet assay) [12]: significant increase
number of EdU-positive cells [6]: significant drop
percentage of beta-Gal-positive cells [1]: increase
percentage of beta-Gal-positive cells [2]: increase
replication fork progression [3]: did not influence fork speed
replication fork progression [4]: accelerated fork progression
